Source: publication PMC6822764, “MitoToxy assay: A novel cell-based method for the assessment of metabolic toxicity in a multiwell plate format using a lactate FRET nanosensor, Laconic” (PLoS ONE, 2019)
Several values for one entry are separate records, joined by “and”; a condition that tells them apart may be missing. Identical values can stand only once.

Columns and labels:
MitoTox reporter cells = settings: 32 μM rotenone, 16 μM antimycin, 5 mM azide, 80 μM oligomycin, 10 μM myxothiazol; 5, 10, 30, 60 minutes; 37°C
Experimental: MitoTox reporter cell line was cultured in Leibowitz media (Gibco) supplemented with 10% of fetal bovine serum (FBS) at 37°C at atmospheric CO2 levels in a 100 mm petri dish. Once cells reached 100% confluency, they were trypsinized using 5% trypsin (Gibco) and washed in PBS. Viability was determine using trypan blue staining and 10,000 cells were seeded into each well of a 96 well plate. Experiments in 96 well format were performed once cells reached 100% confluency after 6 days, during the incubation media was not replaced. All the plates with signal-to-noise ration below 1.3 for monomeric Teal Fluorescent Protein (mTFP) and Venus channels were discarded. Background signal was determined with KRH buffer without cells. […] Then 200 μl of KRH HEPES buffer without any carbon sources was added to each well and the baseline was measured (RMIN), then 100 μl of buffer was replaced with mitochondrial toxicant/controls and signal was measured to obtain a stimulated response (RMAX). […] All the experiments in 96 well plates were performed in an EnVision® multiplate reader (PerkinElmer). Each well was excited at 430 nm and the intensity of mTFP and Venus fluorescence emission were recorded at 485 nm and 528 nm, using a set of filters. […]

[1] = tested on: MDA-MB-231 cells stably expressing the FRET lactate indicator Laconic (MitoTox Reporter); experiment: MitoToxy assay: toxicity-induced lactate accumulation in MitoTox Reporter cells, 96-well plate reader, with 50 μM pCMBS; format: cell-based; settings: read-out: IC50 (toxicity-induced lactate accumulation, MitoToxy)
Experimental: (§1) MitoTox reporter cell line was cultured in Leibowitz media (Gibco) supplemented with 10% of fetal bovine serum (FBS) at 37°C at atmospheric CO2 levels in a 100 mm petri dish. Once cells reached 100% confluency, they were trypsinized using 5% trypsin (Gibco) and washed in PBS. Viability was determine using trypan blue staining and 10,000 cells were seeded into each well of a 96 well plate. Experiments in 96 well format were performed once cells reached 100% confluency after 6 days, during the incubation media was not replaced. All the plates with signal-to-noise ration below 1.3 for monomeric Teal Fluorescent Protein (mTFP) and Venus channels were discarded. Background signal was determined with KRH buffer without cells. Experiments consisted in washing out the culture media using KRH HEPES buffer containing (mM) 136 NaCl, 3 KCl, 1.25 CaCl2, 1.25 MgCl2, 10 HEPES/Tris and pH 7.2 at 37°C with 300 mOsm. Then 200 μl of KRH HEPES buffer without any carbon sources was added to each well and the baseline was measured (RMIN), then 100 μl of buffer was replaced with mitochondrial toxicant/controls and signal was measured to obtain a stimulated response (RMAX). In experiments were pCMBS was used to block lactate exit, the inhibitor was added simultaneously with the mitochondrial toxicants. Data was collected in triplicated after 5, 10, 30, and 60 minutes of incubation. All the experiments in 96 well plates were performed in an EnVision® multiplate reader (PerkinElmer). Each well was excited at 430 nm and the intensity of mTFP and Venus fluorescence emission were recorded at 485 nm and 528 nm, using a set of filters.
(§2) Where R(mTFP/Venus) min corresponded to the minimal change of mTFP/Venus ratio during the single-cell experiments. Results in 96 well plates experiments were expressed by the ΔR%. This parameter was obtained from the difference between the RMAX and RMIN from the same well (before-after experiment) as follow: ΔR%=(R(mTFP/Venus)max−R(mTFP/Venus)min/R(mTFP/Venus)min)x100

[2] = tested on: primary culture of astrocytes from the mouse cortex expressing Laconic; experiment: Single-cell lactate imaging (Laconic) in primary culture of cortical astrocytes; format: cell-based
Experimental: Animals used for primary cultures were mixed F1 male mice (C57BL/6J × CBA/J), kept in an animal room under SPF conditions at a room temperature of 20 ± 2°C, in a 12/12-h light/dark cycle and with free access to water and food. Mixed cortical cultures of neuronal and glia cells (1 –to 3-day-old neonates) was cultured in Neurobasal medium (Gibco) supplemented with 5 mM glucose and B27. Cells were seeded on petri dishes and superfused with KRH HEPES pH 7.4. The lactate imaging experiments with single-cell resolution were performed using cultured astrocytes at 11–14 days post-dissection. Real time experiments were performed with KRH HEPES bathing solution containing (in mM) 136 NaCl, 3 KCl, 1.25 CaCl2, 1.25 MgCl2, 10 HEPES/Tris and pH 7.2 at 36°C with 300 mOsm, without carbon sources for mitochondrial toxicant experiments and 2 mM glucose and 1 mM lactate for Warburg index determination. Experiments were performed in upright Olympus FV1000 confocal microscope equipped with a 20X water-immersion objective (numerical aperture, 1.0) and a 440 nm solid-state laser.
To plot the data, we used a ratio between mTFP and Venus channels. This ratio is proportional to lactate levels, since its binding to the sensor produced a decrease in FRET efficiency. This ratio was expressed in two formulas described below: NormalizedΔR=R(mTFP/Venus)/R(mTFP/Venus)min
With the aim of testing if this observation occurs in general and if azide induced-lactate accumulation can be reproduced using another mitochondrial toxicant with a different molecular target, we performed single-cell experiments exposing primary culture of astrocytes from the mouse cortex expressing Laconic (Fig 1A) to different mitochondria inhibitors that block the ETC at different levels (Fig 1C). To take advantage of the maximal dynamic range of the lactate FRET sensor the baseline measurements were performed using buffer without carbon sources to force start the experiments with lactate levels below 100 μM.
Each data point is from an average of ten cells from three independent experiments.

[3] = tested on: MitoTox Reporter cells (MDA-MB-231 expressing Laconic); experiment: Pilot screening of 13 compounds with MitoTox Reporter cells, multiplate reader; format: cell-based; settings: for ΔR% (lactate accumulation): average of 4 replicate wells, Fig 9 legend 30 minutes, 37°C
Experimental: as §1, §2
Multiple comparisons versus control groups (Holm-Sidak method), Overall significance level P < 0,05.
The capability of the assay to identify previously described toxic drugs was explored through a pilot screening assay. We selected 13 compounds from a variety of therapeutic classes to perform a pilot screening assay using MitoTox Reporter cells and a standard multiplate reader. […] To perform the assays, we prepared master stocks for each compound in 0.2% DMSO. Assays were performed with compounds at final concentrations of 1, 5, and 10 μM and the response of MitoTox Reporter cells were measured at 5, 10, 30, and 60 minutes. […] As a negative control we selected a compound with no reported side-effects.

[4] = tested on: mitochondrial membrane potential (MMP); settings: treatment time 6 hours; ref Li et al., 2014 [50]; read-out: IC50, MMP; cited from earlier work
HepG2 cells = tested on: HepG2 cells; design: method as in PMID 22689143; settings: Seahorse technology, read-out: Concentration required to change the OCR and ECAR by 50%; cited from earlier work
ATP = settings: read-out: IC50, ATP depletion; cited from earlier work

Structure (SMILES) | Lactate accumulation (ΔR%) in 96-well plates without pCMBS (MitoTox reporter cells) | IC50 [1] [mM] | Cytosolic lactate accumulation in astrocytes [2] | ΔR% (lactate accumulation) ([3]; 5 μM) | ΔR% (lactate accumulation) ([3]; 10 μM) | Concentration at which toxicity / mitochondrial effects were detected in the pilot screening ([3]; tested at 1, 5 and 10 μM) [µM] | IC50 [4] [µM] | EC50 (HepG2 cells) [µM] | IC50 (ATP)
[N-]=[N+]=[N-].[Na+] [azide] | declined after 5 minutes | 1.44 | induced an acute cytosolic lactate accumulation |  |  |  |  |  | 
Cc1c(C)c2c(c(C)c1O)CCC(C)(COc1ccc(CC3SC(=O)NC3=O)cc1)O2 (stereo not drawn) [troglitazone] |  |  |  | The effect was also detected | over 14% | 5 | 176 | > 100 | 28 µM and 31.4 µM
